# Experimental data taken from patent publication US8106092B2, “Treatment of solid cancers” (priority 2004, dated 2012).
# Legend:
# [1] = test system: CT26 colon carcinoma cells; assay: PEP005-mediated cure of primaries plus peptide vaccine, CT26 colon carcinoma model; format: in vivo, Balb/c mice; conditions: Log rank p=0.011 (PEP005) and =0.013 (Vaccine)
# Experimental: FIG. 14 is a graphical representation combining PEP005-mediated cure of primaries and cancer vaccination in the CT26 colon carcinoma model. (A) on d−3 […] mice were inoculated with 10^5 CT26 cells on the left flank (primary tumor) and 5×10^3 CT26 cells on the right flank (secondary tumor). On dO the primary CT26 tumors, which has reached 16.8+SD 3.2 mm^2 were cured with i.t. injections of 25 μg of PEP005 formulated in PEG400. On d3 and d10 mice received peptide vaccine containing the SPSYVYHQF [SEQ ID NO:5] epitope (n=9, PEP005+Vaccine). […] A third group was inoculated with secondary tumors only and received the vaccine (n=11, Vaccine), and the control group was given only secondary tumors and received no treatment (n=12, Controls). Animals were culled when the secondary tumors reached 100 mm^2.
# CT26 colon carcinoma cells [CRL-2638] (Ali et al, 2002 supra) were grown s.c. in 6-10 week old female Balb/c mice.
# The cancer vaccine comprised the gp70 A-1 peptide epitope SPSYVYHQF [SEQ ID NO:5] […]
# To determine whether the effects seen in the B16 models could be repeated in a different tumor model and using a different cancer vaccine, four groups of Balb/c mice were established using the CT26 colon carcinoma model (Ali et al, J Immunol 168:3512-3519, 2002). […] The growth of secondary tumors was monitored as above.
# B16-OVA tumors = assay: PEP005-mediated cure of primaries plus DC therapy, growth of secondary tumors, s.c. B16-OVA model; format: in vivo, C57BL/6 mice; conditions: Log rank p<0.001 (PEP005) and =0.002 (DC)
# Experimental: FIGS. 13A to C are graphical representations showing synergistic effects between PEP005-mediated cure of primaries and DC therapy on the growth of secondary tumors and on CD8^+ T-cell induction. (A) On d−3 C57BL/6 mice where inoculated with 2×10^6 B16-OVA cells on the right flank (primary tumor) and 2×10^4 B16-OVA cells on the left flank (secondary tumor). On d0 and d1 the primary B16-OVA tumors, which has reach 30.4 mm^2+SD6 were cured with i.t. injections of 25 μg of PEP005 formulated in PEG400. On d4 and d11 mice received DC therapy using DC2.4 cells pulsed with SVYDFFVWL [SEQ ID NO:1], KVPRNQDWL [SEQ ID NO:4] and SIINFEKL [SEQ ID NO:2] peptides, and ovalbumin (n=12, PEP005+DC). […] Animal groups were established and treated as in (A) except that on d12 mice were sacrificed and splenocytes analyzed in an ex vivo ELISPOT assay for responses to SVYDFFVWL [SEQ ID NO:1], KVPRNQDWL [SEQ ID NO:4] and SIINFEKL [SEQ ID NO:2] […]
# To determine whether the immunostimulatory activity of PEP005-mediated cure of primary tumors would synergize with DC therapy to reduce growth of secondaries, four groups of C57BL/6 mice were established using the s.c. B16-OVA model. […] The growth of secondary tumors was monitored over time.
# Lewis lung-OVA tumors = assay: Lewis lung-OVA primary cure and secondary challenge repeated in Foxnl^nu mice; format: in vivo; conditions: PEP005-mediated cure of primary tumors
compound,measurement,setting,value
"C/C=C(/C)C(=O)O[C@H]1C(C)=C[C@]23C(=O)[C@@H](C=C(CO)[C@@H](O)[C@]12O)[C@H]1[C@@H](C[C@H]3C)C1(C)C [PEP005, ingenol-3-angelate]",growth of secondaries vs no treatment controls,[1],significantly reduced the growth of secondaries
same,growth of secondaries vs no treatment controls,B16-OVA tumors,significantly reduced the growth of secondaries
same,protection against secondary challenge,Lewis lung-OVA tumors,no protective effect
